Measurements reported in patent US20030232994A1, “Bicyclic thiophene derivatives and combinatorial libraries thereof” (priority 2001, published 2003).

System: Streptococcus pyogenes (ATCC# 97-03 14289)
Test: Anti-microbial screen (growth inhibition, OD 570 nm)
Assay type: cell-based
Conditions: growth in Todd Hewitt Broth, plates read at 570 nm at 0 time and 4 hours, color corrected
Description: Streptococcus pyogenes (ATCC# 97-03 14289) was grown in Todd Hewitt Broth (THB) (Difco Laboratories #0492-17-6) overnight until reaching an optical density of (OD=0.636 @ 570 nm) by reading 0.1 ml in a 96 well microtiter plate in a Molecular Devices Thermomax. This preparation was kept frozen as stocks in 30% v/v glycerol in 1.5 ml aliquots at −70^mC. until use. Prior to experiments, […] aliquots were thawed and diluted into 50 ml 2×THB. 60 ul of this dilution was added to 92 wells of microtiter plate. To three wells THB (200 ul) was added to serve as a blank and a sterility control. Test compounds in DMSO and appropriate concentrations of DMSO were added to Growth/Solvent Controls at 0 time. Plates were read at 0 time at 570 nm in the Molecular Devices plate reader to obtain compounds correction factors for insoluble or colored compounds. Plates were read again at 4 hours.
Percent inhibition is calculated with the following formulae: [drawing 4]
Color correct=O.D. 0 hr−Blank 0 hr)−(Solvent Control 0 hr−Blank 0 hr)
% Inhibition=100−O.D. test compound 4 hr−Blank 4 hr−color correct O.D. growth/solvent control 4 hr−Blank 4 hr

Row | SMILES | % Inhibition [%]
1 | CCCc1ccc(C(=O)Nc2sc3c(c2C(=O)O)CCN(C(=O)c2ccc(C)cc2C)C3)cc1 | 61.2
2 | CCC(C(=O)Nc1sc2c(c1C(=O)O)CCN(C(=O)c1ccccc1SC)C2)c1ccccc1 (stereo not drawn) | 68.58
3 | O=C(CCC1CCCC1)Nc1sc2c(c1C(=O)O)CCN(C(=O)c1ccccc1C(F)(F)F)C2 | 72.86
4 | CCC(C(=O)Nc1sc2c(c1C(=O)O)CCN(C(=O)c1ccc(Cl)cc1)C2)c1ccccc1 (stereo not drawn) | 72.87
5 | CC(C)(C)c1ccc(C(=O)Nc2sc3c(c2C(=O)O)CCN(C(=O)CCc2ccc(F)c(F)c2)C3)cc1 | 69.4
6 | CCCSc1ncccc1C(=O)N1CCc2c(sc(NC(=O)c3ccc(CC)cc3)c2C(=O)O)C1 | 92.01
7 | Cc1ccc(C(=O)N2CCc3c(sc(NC(=O)c4ccc(C(C)(C)C)cc4)c3C(=O)O)C2)c(C)c1 | 82.83
8 | CSc1ncccc1C(=O)N1CCc2c(sc(NC(=O)c3ccc4ccccc4c3)c2C(=O)O)C1 | 64.54
9 | O=C(Nc1sc2c(c1C(=O)O)CCN(C(=O)C1CCC1)C2)c1ccc(Cl)cc1 | 67.98
10 | COc1ccccc1C(=O)Nc1sc2c(c1C(=O)O)CCN(C(=O)CCc1ccc(F)c(F)c1)C2 | 60.86
11 | CCCc1ccc(C(=O)Nc2sc3c(c2C(=O)O)CCN(C(=O)C(C)C)C3)cc1 | 74.78
12 | O=C(Nc1sc2c(c1C(=O)O)CCN(C(=O)c1cc3ccccc3s1)C2)c1ccco1 | 96.65
13 | CC(C)(C)c1ccc(C(=O)Nc2sc3c(c2C(=O)O)CCN(C(=O)c2ccc(F)c(F)c2)C3)cc1 | 75.95
14 | Cn1cc(C(=O)N2CCc3c(sc(NC(=O)CCC4CCCC4)c3C(=O)O)C2)c2ccccc21 | 65.02
15 | CC(C)(C)c1ccc(C(=O)Nc2sc3c(c2C(=O)O)CCN(C(=O)c2ccc(F)cc2F)C3)cc1 | 86.77
16 | CCc1ccc(C(=O)Nc2sc3c(c2C(=O)O)CCN(C(=O)c2ccccc2SC)C3)cc1 | 86.44
17 | CC(CC(=O)Nc1sc2c(c1C(=O)O)CCN(C(=O)CC1CCCC1)C2)CC(C)(C)C (stereo not drawn) | 81.9
18 | CCCc1ccc(C(=O)Nc2sc3c(c2C(=O)O)CCN(C(=O)c2cc(OC)ccc2OC)C3)cc1 | 60.54
19 | CCCc1ccc(C(=O)Nc2sc3c(c2C(=O)O)CCN(C(=O)C2CCCCC2)C3)cc1 | 66.83
20 | CCCSc1ncccc1C(=O)N1CCc2c(sc(NC(=O)c3ccc(C(C)(C)C)cc3)c2C(=O)O)C1 | 83.49
21 | CCCSc1ncccc1C(=O)N1CCc2c(sc(NC(=O)c3ccccc3OC)c2C(=O)O)C1 | 61.59
22 | CC(=O)Nc1cccc(C(=O)N2CCc3c(sc(NC(=O)c4ccccc4Cl)c3C(=O)O)C2)c1 | 72.75
23 | CCCc1ccc(C(=O)Nc2sc3c(c2C(=O)O)CCN(C(=O)c2cccc(OC)c2OC)C3)cc1 | 76.44

Row | SMILES | % Inhibition [%]
24 | CCc1ccc(C(=O)Nc2sc3c(c2C(=O)O)CCN(C(=O)c2ccccc2Cl)C3)cc1 | 77.92
25 | COc1ccc(OC)c(C(=O)N2CCc3c(sc(NC(=O)c4ccc5ccccc5c4)c3C(=O)O)C2)c1 | 86.36
26 | COc1cccc(C(=O)Nc2sc3c(c2C(=O)O)CCN(C(=O)c2ccc(Cl)cc2)C3)c1 | 90.32
27 | O=C(Nc1sc2c(c1C(=O)O)CCN(C(=O)c1ccc(Cl)cc1)C2)c1ccc2ccccc2c1 | 76.7
28 | CSc1ccccc1C(=O)N1CCc2c(sc(NC(=O)c3ccccc3)c2C(=O)O)C1 | 79.15
29 | O=C(Nc1sc2c(c1C(=O)O)CCN(C(=O)c1ccc(C(F)(F)F)cc1)C2)c1c(F)cccc1F | 59.67
30 | CCCSc1ncccc1C(=O)N1CCc2c(sc(NC(=O)c3ccc(CCC)cc3)c2C(=O)O)C1 | 79.09
31 | O=C(CCC1CCCC1)Nc1sc2c(c1C(=O)O)CCN(C(=O)c1cccc3ccccc13)C2 | 82.49
32 | CC(=O)Nc1ccc(C(=O)N2CCc3c(sc(NC(=O)c4ccccc4)c3C(=O)O)C2)cc1 | 90.8
33 | CC(C)(C)c1ccc(C(=O)Nc2sc3c(c2C(=O)O)CCN(C(=O)c2ccccc2Cl)C3)cc1 | 89.72
34 | CC(C)CC(=O)N1CCc2c(sc(NC(=O)c3ccc(C(C)(C)C)cc3)c2C(=O)O)C1 | 64.48
35 | O=C(Nc1sc2c(c1C(=O)O)CCN(C(=O)c1ccc(C(F)(F)F)cc1)C2)c1ccccc1 | 72.63
36 | CC(C)CC(=O)N1CCc2c(sc(NC(=O)c3ccccc3Cl)c2C(=O)O)C1 | 59.63
37 | CC(C)(C)c1ccc(C(=O)Nc2sc3c(c2C(=O)O)CCN(C(=O)c2ccsc2)C3)cc1 | 82.18
38 | CCCc1ccc(C(=O)Nc2sc3c(c2C(=O)O)CCN(C(=O)c2ccc(Cl)cc2OC)C3)cc1 | 67.49
39 | O=C(Nc1sc2c(c1C(=O)O)CCN(C(=O)/C=C/c1ccc(Cl)cc1)C2)c1ccccc1 | 93.13
40 | CC(C)(C)c1ccc(C(=O)Nc2sc3c(c2C(=O)O)CCN(C(=O)C2CCCCC2)C3)cc1 | 59.89
41 | CCc1ccc(C(=O)Nc2sc3c(c2C(=O)O)CCN(C(=O)c2ccc(C)cc2C)C3)cc1 | 85.78
42 | O=C(Nc1sc2c(c1C(=O)O)CCN(C(=O)c1ccccc1Cl)C2)c1ccc(Cl)cc1 | 62.91
43 | O=C(Nc1sc2c(c1C(=O)O)CCN(C(=O)/C=C/c1ccc(Cl)cc1)C2)c1ccccc1Cl | 68.58
44 | CC(C)CC(=O)N1CCc2c(sc(NC(=O)c3ccc4ccccc4c3)c2C(=O)O)C1 | 77.94
45 | Cc1ccc(C(=O)N2CCc3c(sc(NC(=O)c4ccc(Cl)cc4)c3C(=O)O)C2)cn1 | 64.41
